Results on one compound are retold here after patent US20170202838A1, “IMMUNOMODULATOR” (TAIHO PHARMACEUTICAL CO., LTD., priority 2015, published 2017).

Structures are written as SMILES.

What all share (assay type): cell-based
The subject of assay [1] is mouse spleen cells. The assay can be described thus: Induction of IL-2 production of mouse spleen cells stimulated with anti-CD3 antibody and anti-CD28 antibody (Example 1). As to the method:
The mouse spleen was extracted, grinded with glass slides with frosted areas, and then subjected to hemolysis, so as to obtain spleen cells. The resulting spleen cells were introduced into a complete medium (i.e., RPMI-1640 supplemented with 10% heat-inactivated FBS, 100 U/ml penicillin, 100 μg/ml streptomycin, and 55 μM 2-mercaptoethanol) to a cell density of 2×10^6 cells/ml, the anti-CD3 antibody and the anti-CD28 antibody were added thereto to the final concentrations of 3 μg/ml and 0.5 μg/ml, respectively, and Compound (I) was further added thereto to each final concentration. The culture solution was seeded in a 96-well plate at 200 μl/well and then cultured in an incubator at 37° C. in the presence of 5% CO2 for 2 days. The culture supernatant was recovered, and the concentration of IL-2 contained therein was measured via ELISA using anti-mIL-2 antibody.
Also, culture was conducted in the same manner with the addition of the anti-CD3 antibody at a variable final concentration, the anti-CD28 antibody at the final concentration of 0.5 μg/ml, and Compound (I) at the final concentration of 0.0 μM or 0.1 μM, and the IL-2 concentration in the culture supernatant was measured.

For assay [2], the system named is mouse spleen cells. In words: Excitation of T cell growth, CFSE flow cytometry of CD4- and CD8-positive spleen cells (Example 4). Particulars: anti-CD3 1 μg/ml and anti-CD28 1 μg/ml, 3 days; comparators at 0.1 μM (FIG. 5). As to the method:
The mouse spleen was extracted, grinded with glass slides with frosted areas, and then subjected to hemolysis, so as to obtain spleen cells. The spleen cells were suspended in 5 ml of a staining buffer (0.5% BSA, 2 mM EDTA, PBS(-)), and the cells were stained with 5 μM CFSE (5-carboxyfluorescein succinimidyl ester). Thereafter, the stained cells were washed with an ice-cooled complete medium (RPMI-1640). The CFSE-stained spleen cells were introduced into a complete medium (i.e., RPMI-1640 supplemented with 10% heat-inactivated FBS, 100 U/ml penicillin, 100 μg/ml streptomycin, and 55 μM 2-mercaptoethanol) to prepare a cell suspension (1×10^6 cells/ml), the anti-CD3 antibody and the anti-CD28 antibody were added at 1 μg/ml and 1 μg/ml, respectively, and Compound (I) adjusted to various concentrations or the EGFR tyrosine kinase inhibitor (i.e., AZD09291, Erlotinib, Co1686 (Rociletinib), Ibrutinib, Sunitinib, or Dasatinib) was added at 0.1 μM. […] These culture solutions were seeded in a 96-well plate at 200 μl/well and then cultured in an incubator at 37° C. in the presence of 5% CO2 for 3 days. The cells were recovered and stained with the anti-CD4 antibody and the anti-CD8 antibody. The amounts of CFSE in CD4- and CD8-positive cells were analyzed via flow cytometry.
Once CFSE is incorporated into a cell, the amount thereof is kept constant in the cell. Since the amount of CFSE per cell decreases by half upon cell division, according to flow cytometric analysis, the intensity of CFSE staining is attenuated and is shifted toward left (i.e., lower level) in the chart, as cell division proceeds. […] In the case of the samples to which other types of EGFR tyrosine kinase inhibitors had been added, in contrast, no such activity for enhancing the cell growth was observed.

In a further assay the test system is K1735M2. The assay can be described thus: In vitro growth of mouse melanoma cell line K1735M2, CellTiter-Glo2.0 (Reference Example 1). The following applies: K1735M2, 3 days culture. As to the method: The mouse melanoma cell lines B16F10 and K1735M2 and the mouse colon cancer cell line MC38 were seeded in a 96-well plate at 3×10^3 cells/well. Compound (I) or the EGFR tyrosine kinase inhibitor (i.e., Erlotinib, Afatinib, AZD9291, or Co1686 (Rociletinib)) that had been diluted to the given concentration was added 24 hours later. Thereafter, culture was conducted for 3 days, and the number of cells was determined using CellTiter-Glo2.0 (Promega, G9243).

As to `C=CC(=O)N[C@H]1CCc2c(-c3cnc4ccccc4c3)c3c(N)ncnc3n2C1` [Compound (I), (S)—N-(4-amino-5-(quinolin-3-yl)-6,7,8,9-tetrahydropyrimido[5,4-b]indolizin-8-yl)acrylamide], in the assay with mouse spleen cells [1] (anti-CD3 antibody 3 μg/ml and anti-CD28 antibody 0.5 μg/ml constant, Compound (I) variable, 2 days, ELISA (FIG. 1)), the “concentration of IL-2 produced by mouse spleen cells in the culture supernatant” value is recorded as “increased as the amount of Compound (I) added increased”. Also, the “concentration of IL-2 produced by mouse spleen cells in the culture supernatant” value in the assay on mouse spleen cells [1] (anti-CD3 antibody variable, anti-CD28 antibody 0.5 μg/ml, Compound (I) 0.1 μM vs 0.0 μM (FIG. 2)) was “IL-2 production was induced upon stimulation with the anti-CD3 antibody”. Further, in the assay on mouse spleen cells [2], the “amount of CFSE per CD4-positive cell (cell growth)” value is on record as “decreases” and the “amount of CFSE per CD8-positive cell (cell growth)” value is reported as “decreases”. Also, the “suppression of cell growth (number of cells)” value with K1735M2 is given as “did not suppress the growth of any cells”.
